In paper PMC12118597 (Science Advances, 2025):
“And” between values parts separate entries of the source, which are not always exact repeats. Equal values may be shown once. Read-outs that look alike come from different tables or passages of the source.

Experiments:
[1] = target: T1, SARS-CoV-2 NSP3 macrodomain (Mac1) (Severe acute respiratory syndrome coronavirus 2, UniProt P0DTD1); format: binding; conditions: for 1-BDC (PanDDA run, DMSO background map): event 1; for Total number of conformations: ligand conformations modeled in the crystal structure; for 2*(1-BDC) (%): occupancy estimate from PanDDA
[2] = target: T1, SARS-CoV-2 NSP3 macrodomain (Mac1); assay: biochemical; format: binding
[3] = PanDDA background density correction factor
[4] = TRUE = ligand-bound crystal structure obtained (PDB code given)
[5] = crystal soak concentration 20 mM, DMSO background map
[6] = crystal soak concentration 20 mM, P43 crystals
[7] = refined crystallographic occupancy
[8] = site of Mac1 occupied in the X-ray crystal structure (Adenosine or Distal)
[9] = soak concentration 10 mM, DMSO background map
[10] = soak concentration 10 mM, P43 crystals
[11] = HTRF binding curve, SARS-CoV-2 Mac1
[12] = TRUE = crystal structure with ligand obtained
[13] = crystal soak 10 mM, P43 crystal form
[14] = crystal soak 10 mM, DMSO background map
[15] = site of ligand in X-ray crystal structure
[16] = crystal soak 10 mM, TFA/DMSO background map
[17] = ligand-bound crystal structure obtained (TRUE)
[18] = site occupied in X-ray crystal structure
[19] = SARS CoV-2 macrodomain HTRF assay, dose-response
[20] = PanDDA background density correction, 1-BDC
[21] = crystal soak concentration 10 mM, DMSO background map
[22] = crystal soak concentration 10 mM, P43 crystals

Row | Compound | Occupancy difference (refined_occupancy - 2*(1-BDC)) [1] | 1-BDC [1, 3] | Total number of conformations [1] | 2*(1-BDC) (%) [1] [%] | Refined ligand occupancy (%) [1, 7] [%] | PanDDA run, overall: Hit [1, 13] | PanDDA run, DMSO background map: 1-BDC [1, 14] | PanDDA run, DMSO background map: Hit [1, 14] | X-ray crystal structure [1, 17] | Binding site [1, 18] | other results
1 | OCC(Cc1ccccc1)Nc1ncnc2[nH]ccc12 (stereo not drawn) [AVI-313] | 14 | 0.18 | 2 | 36 | 50 | – | – | – | – | – | X-ray crystal structure [1, 4]: TRUE; Hit (PanDDA run, DMSO background map) [1, 5]: TRUE; 1-BDC (PanDDA run, DMSO background map) [1, 5]: 0.25; Hit (PanDDA run, overall) [1, 6]: TRUE; Modeling comment (PanDDA run, overall) [1, 6]: Duplicate, not modeled; Binding site [1, 8]: Adenosine; PanDDA run, DMSO background map: 1-BDC [1, 9]: 0.18; PanDDA run, DMSO background map: Hit [1, 9]: TRUE; PanDDA run, DMSO background map: Modeled [1, 9]: TRUE; PanDDA run, overall: Hit [1, 10]: TRUE; PanDDA run, overall: Modeled [1, 10]: TRUE; Hill slope [2, 11]: 1.2; Hill slope ([2]; dose-response): 1.2
2 | CC(CNC(=O)c1ccc2c(c1)CCC(=O)N2)C(=O)O (stereo not drawn) [AVI-328] | 0 | 0.11 | 2 | 22 | 22 | – | – | – | – | – | X-ray crystal structure [1, 4]: TRUE; Binding site [1, 8]: Adenosine; PanDDA run, DMSO background map: 1-BDC [1, 9]: 0.11 and 0.1; PanDDA run, DMSO background map: Hit [1, 9]: TRUE; PanDDA run, DMSO background map: Modeled [1, 9]: TRUE; PanDDA run, overall: Hit [1, 10]: TRUE; PanDDA run, overall: Modeled [1, 10]: TRUE; PanDDA run, overall: Modeling comment [1, 10]: Duplicate, not modeled; Hill slope [2, 11]: 1.3; inhibition at 200 µM ([2]; compound at 200 μM, mean of three to four technical replicates, read-out: % competition at 200 μM (preliminary HTRF screen)): 50%; Hill slope ([2]; dose-response): 1.3
3 | CC1CC(C(=O)O)CN(C(=O)CSc2ccc(O)cc2)C1 (stereo not drawn) [AVI-334] | – | – | – | – | – | – | – | – | – | – | PanDDA run, DMSO background map: 1-BDC [1, 9]: 0.07; PanDDA run, DMSO background map: Hit [1, 9]: TRUE; PanDDA run, overall: Hit [1, 10]: TRUE; PanDDA run, overall: Modeling comment [1, 10]: Weak density, not modeled; Average % competition ([2]; single dose concentration 200 μM (TS-FrankenROCS series)): 25%
4 | OCC(Cc1cccs1)Nc1ncnc2[nH]ccc12 (stereo not drawn) [AVI-3711] | 0 | 0.21 | 1 | 42 | 42 | TRUE | 0.21 | TRUE | – | – | X-ray crystal structure [1, 12]: TRUE; Binding site [1, 15]: Adenosine
5 | O=C(O)C(F)(F)F.OCC1C2C=CC(C2)N1c1ncnc2[nH]ccc12 (stereo not drawn) [AVI-3712] | – | – | – | – | – | TRUE | 0.15 | TRUE | – | – | PanDDA run, overall: Modeling comment ([1]; crystal soak 10 mM): Weak density, not modeled; PanDDA run, TFA/DMSO background map: 1-BDC [1, 16]: 0.05; PanDDA run, TFA/DMSO background map: Hit [1, 16]: TRUE
6 | CC(C)(C)C(O)CC(CO)Nc1ncnc2[nH]ccc12.O=C(O)C(F)(F)F (stereo not drawn) [AVI-3714] | – | – | – | – | – | – | – | – | – | – | PanDDA run, overall: Modeling comment ([1]; crystal soak 10 mM): TFA only
7 | OCC(Nc1ncnc2[nH]ccc12)c1ccccc1 (stereo not drawn) [AVI-3715] | 0 | 0.18 | 1 | 36 | 36 | TRUE | 0.18 | TRUE | – | – | X-ray crystal structure [1, 12]: TRUE; Binding site [1, 15]: Adenosine
8 | OCC1COCCN1c1ncnc2[nH]ccc12 (stereo not drawn) [AVI-3717] | 0 | 0.14 | 2 | 28 | 28 | TRUE | 0.14 | TRUE | TRUE | Adenosine | –
9 | CC(C)(C)C1CCC(CO)N(c2ncnc3[nH]ccc23)C1 (stereo not drawn) [AVI-3719] | 0 | 0.08 | 1 | 16 | 16 | TRUE | 0.08 | TRUE | TRUE | Adenosine | Phe132 loop open state [1]: TRUE
10 | CN1CCN(c2ncnc3[nH]ccc23)C(CO)C1 (stereo not drawn) [AVI-3721] | 0 | 0.06 | 2 | 12 | 12 | TRUE | 0.06 | TRUE | TRUE | Adenosine | –
11 | CC(C)(C)[C@@H]1CCN(c2ncnc3[nH]ccc23)[C@H](CO)C1 [AVI-3722] | 0 | 0.11 | 1 | 22 | 22 | TRUE | 0.11 | TRUE | TRUE | Adenosine | –
12 | CC1(C)CCC(CO)N(c2ncnc3[nH]ccc23)C1 (stereo not drawn) [AVI-3726] | 0 | 0.17 | 3 | 34 | 34 | TRUE | 0.17 | TRUE | TRUE | Adenosine | –
13 | OCC1CC2(CCCCC2)CN1c1ncnc2[nH]ccc12 (stereo not drawn) [AVI-3727] | 0 | 0.29 | 1 | 58 | 58 | TRUE | 0.29 | TRUE | TRUE | Adenosine | PanDDA run, overall: Modeling comment ([1]; crystal soak 10 mM): Distal site, weak density, not modeled
14 | OCC1CC2(CCC2)CN1c1ncnc2[nH]ccc12 (stereo not drawn) [AVI-3728] | 0 | 0.24 | 2 | 48 | 48 | TRUE | 0.24 | TRUE | TRUE | Adenosine | PanDDA run, overall: Modeling comment ([1]; crystal soak 10 mM): Distal site, weak density, not modeled
15 | C[C@@H](O)[C@H](CO)Nc1ncnc2[nH]ccc12.O=C(O)C(F)(F)F [AVI-3730] | 0 | 0.14 | 1 | 28 | 28 | TRUE | 0.14 | TRUE | – | – | X-ray crystal structure [1, 12]: TRUE; Binding site [1, 15]: Adenosine
16 | Cc1nn(C)cc1C1CC[C@H](CO)N1c1ncnc2[nH]ccc12 (stereo partly drawn) [AVI-3733] | 20 | 0.1 | 1 | 20 | 40 | TRUE | 0.1 | TRUE | TRUE | Adenosine | PanDDA run, overall: Modeled [1, 13]: TRUE
17 | OCC1CCC2(CCOCC2)CN1c1ncnc2[nH]ccc12 (stereo not drawn) [AVI-4065] | – | – | – | – | – | – | – | – | – | – | Hill slope [2, 11]: 1.2; Hill slope [2, 19]: 1.2
18 | OC1(CNc2ncnc3[nH]ccc23)CCC2(CC1)OCCO2 [AVI-4315] | – | – | – | – | – | – | – | – | – | – | Hill slope [2, 11]: 1.2; Hill slope [2, 19]: 1.2
19 | CC(Nc1ncnc2[nH]ccc12)C1(O)CCCCC1 (stereo not drawn) [AVI-4321] | – | – | – | – | – | – | – | – | – | – | Hill slope [2, 11]: 1.2; Hill slope [2, 19]: 1.2
20 | Cc1c[nH]c2ncnc(NCC3(O)CCC(O)CC3)c12 (stereo not drawn) [AVI-4329] | – | – | – | 18 | – | – | – | – | TRUE | Adenosine | 1-BDC [1, 20]: 0.09; Hit (PanDDA run, DMSO background map) [1, 21]: TRUE; Modeled (PanDDA run, DMSO background map) [1, 21]: TRUE; 1-BDC (PanDDA run, DMSO background map) [1, 21]: 0.09 and 0.11; Hit (PanDDA run, overall) [1, 22]: TRUE; Modeled (PanDDA run, overall) [1, 22]: TRUE; Modeling comment (PanDDA run, overall) [1, 22]: Duplicate, not modeled; Refined ligand occupancy (%) ([1]; crystallographic refinement): 30%
21 | CC(O)C(C)Nc1ncnc2[nH]ccc12 (stereo not drawn) [AVI-5158] | – | – | – | 34 | – | – | – | – | – | – | 1-BDC [1, 20]: 0.17; X-ray crystal structure [1, 12]: TRUE; Refined ligand occupancy (%) ([1]; crystallographic refinement): 34%; Binding site [1, 15]: Adenosine
22 | CC(C)C1CCCN1c1ncnc2[nH]ccc12 (stereo not drawn) [AVI-5216] | – | – | – | 26 | – | – | – | – | TRUE | Adenosine | 1-BDC [1, 20]: 0.13; Refined ligand occupancy (%) ([1]; crystallographic refinement): 40%
23 | CC(C)(C)C1CCCN1c1ncnc2[nH]ccc12 (stereo not drawn) [AVI-6000] | – | – | – | 14 | – | – | – | – | TRUE | Adenosine | 1-BDC [1, 20]: 0.07; Refined ligand occupancy (%) ([1]; crystallographic refinement): 14%
